Common to all, as to assay type: in vivo, mouse
The test system of test [1] is J20 mice. Briefly: Barnes maze, preventive treatment of pre-symptomatic J20 mice. An excerpt: FIG. 23: Barnes maze to assess spatial memory in J20 mice. Barnes maze tested at washout at (a-c) 12 week (6 months of age) and (d-f) 20 week (8 months of age). (a,d) Learning to find the escape hatch over 4 days in seconds. (b,e) Primary latency to reach the escape hatch and primary errors to find the hatch. In (b) One-way ANOVA (F(2,29)=5.948, p=0.0068), in (e) One-way ANOVA (F(2,22)=7.2545, p=0.0038) followed by Dunnett's pot-hoc *p<0.05, ** p<0.01. (c,f) Probe test: number of pokes for each of the 20 holes of the Barnes maze when hatch hole is blocked. T indicates target hole where hatch was accessible during training.
(§1) We directly tested whether pre-symptomatic inhibition of inflammation in a mouse genetic model of Alzheimer disease can stem the progression of memory and behavioral deficits, and Alzheimer disease-like pathology. The J20 amyloid precursor protein Swedish/Indiana mutant mouse was treated at 2 months of age for a one month period with 50 mg/Kg Caspase-1 inhibitor VX-765 (FIG. 22a).

Test [2] deals with J20 mice. The test is described as follows: NOR, preventive treatment of pre-symptomatic J20 mice. Here is the method: FIG. 22: Novel object recognition behavioral assay to assess episodic memory in J20 mice. Mice were treated with vehicle (WT and J20) or 50 mg/kg VX-765 (J20) at 2 months of age for 1 month (3 injections per week×4 weeks=12 injections). (a) Schematic representation of the manner in which the studies were carried out. (b) Discrimination index indicates the number of touches of the novel object minus the number of touches of the familiar object divided by the number of total touches for both objects. Two-way ANOVA (F(2,240)=75.62, p<0.0001) with Dunnett's compared to the J20+vehicle. * p<0.05, **** p<0.0001 (c) % mice impaired in NOR in each group of mice tested at the different time points.
Studies are done on 8 (pre-symptomatic) week old J20 and littermate WT controls injected with 50 mg/Kg VX-765 or vehicle. The 8 week old mice are injected for 4 weeks (3 injections per week) and monitored for memory deficits at 16 weeks of age and every 4 weeks thereafter until the mice reach 8 months of age. VX-765 delays the onset of cognitive deficits by at least 5 months in the J20 mouse.
To determine if VX-765 can delay the appearance of AD-like cognitive deficits and pathology in the J20 mice, J20 mice were injected 3 times per week for 4 weeks starting at 2 months of age. We started NOR tests at 4 months of age, after 1 month without drug, and retested every month thereafter until 8 months of age (FIG. 3). […] At 8 months of age, only 1 of 3 mice have NOR deficit resulting in an averaged normal behavior. Since we sacrificed 2 mice per group at 4, 5, and 6 months and 3 mice per group at 7 and 8 months, note that the results of the older groups need more experimental data for solid conclusions.
as §1

The test system of test [3] is J20 mice. Briefly: Iba1 microglia immunohistochemistry, treated symptomatic J20 mice brains. From the text: FIG. 10: VX-765 reverses neuroinflammation in J20 mice. (a) Iba-1 positive microglia immunohistographs in the stratum lacunosum molecular area of the hippocampus and S1 of cortex (Scale bar=50 μm). (b) Stereological quantification of Iba-1^+ microglia for WT+Vehicle (n=6), J20+Vehicle (n=5), and J20+VX-765 (n=4) in the hippocampus from the pyramidal cell layer to the stratum lacunosum molecular layer (F(2,11)=58, p<0.0001) and cortex (F(2,11)=39.95, p<0.0001, ANOVA, Dunnett's post-hoc compared to J20+Vehicle, ***p<0.001). (c) Average percentage distribution of morphological microglial subtypes 1 (black (lowermost) bar), 2 (light grey bar), 3 (dark grey bar) and 4 (black (uppermost) bar). (d) II1-β pg/mg levels measured by ELISA in pre-treated J20 at 5 months of age and in treated WT and J20 8 months of age. (e) Astroglial GFAP^+ immunohistographs.
To assess AD-like pathology, immunohistochemical analyses were performed to detect amyloid deposition (anti-AβF25276)^5,6, microglial (Iba1) activation^7, astrogliosis (GFAP), synaptophysin protein levels on coronal brain sections. Multiplex MSD ELISA was used to assess Aβ levels and 38,40, and 42 subtypes, and II-1β brain levels. RT-PCR was used to assess levels of human APP^Sw/Ind.

“Also recorded” adds a separate entry of the source.

Turning to `CCO[C@@H]1OC(=O)C[C@@H]1NC(=O)[C@@H]1CCCN1C(=O)[C@@H](NC(=O)c1ccc(N)c(Cl)c1)C(C)(C)C` [VX-765, (S)-1-((S)-2-{[1-(4-amino-3-chloro-phenyl)-methanoyl]-amino}-3,3-dimethyl-butanoyl)-pyrrolidine-2-carboxylic acid ((2R,3S)-2-ethoxy-5-oxo-tetrahydro-furan-3-yl)-amide], in the test on J20 mice [1] (12-week washout), the “Barnes maze ability to distinguish the target area” value is listed as “better ability to distinguish the target area” and the “Barnes maze primary errors” value is “corrected this deficit”. The “Barnes maze primary latency” value with J20 mice [1] (12-week washout (6 months of age)) was “tended towards a better performance”. Moreover, in the test with J20 mice [1] (20-week washout), the “Barnes maze identifying the target area in probe test” value is reported as “performed better than the Vehicle-treated J20 mice”; the “Barnes maze learning phase” value is recorded as “performed normally in the learning phase”; the “Barnes maze primary latency and primary errors” value is reported as “did not reach statistical significance”. Also, the “delay of the onset of cognitive deficits” value in the test with J20 mice [2] (50 mg/Kg, 3 injections per week for 4 weeks from 8 weeks of age) is “at least 5 months”. Besides, in the test with J20 mice [2] (4, 5 and 6 months of age (1, 2, 3 month washout)), the NOR performance entry is “perform normally on NOR”. Besides, the “mice that developed NOR deficits” value with J20 mice [2] (7 months of age (4 month washout)) is reported as 3 out of 6. For the same compound, the “mice with NOR deficit” value in the test with J20 mice [2] (8 months of age) is 1 of 3. The NOR discrimination index entry in the test with J20 mice [2] (after 16 and 20 week washout) is recorded as “lower performance although they are still performing better than vehicle-treated J20 mice”. Moreover, in the test with J20 mice [2] (average, each washout time point (4 to 20 weeks)), the NOR discrimination index entry is on record as “perform like the WT mice”. The “percentage of mice impaired in NOR” value with J20 mice [2] (each washout time point) was “does not differ significantly from vehicle-treated WT mice”. For the same compound, the “Iba1-positive microglia in hippocampus CA1” value with J20 mice [3] (50 mg/kg, 12 injections, 8 month old J20) is given as “normalized; also recorded: reduced to WT levels”. Further, the “number of Iba1+ microglia, pyramidal cell layer to stratum lacunosum molecular layer of CA1” value in the test on J20 mice [3] (50 mg/kg, after Treatment 3, stereological quantification) was “returned to normal”. The “microglial activation measured morphologically” value in the test with J20 mice [3] (hippocampus and cortex, vs vehicle-treated J20) is “more resting, and less activated, microglia”.

Values taken from patent publication US11160788B2, “Caspase-1 inhibition and uses thereof for prevention and treatment of neurological conditions” (priority 2016, dated 2021).
